Assay results taken from patent publication US20240139221A1, “TREATMENT OF HPV-INDUCED NEOPLASIA” (priority 2022, published 2024).

What was measured:
physchem = conditions: for solubility / solubility at 0.5 h / solubility at 2 h: 37 °C, thermodynamic from solid; for pH of solution, 2 hours / Solubility 2 hours: 37° C.; for Solubility 2 hours: target 10 mg/5 mL
Method: About 4 mg of Compound I Pattern 1 was added into 2 mL of buffer solution.
(§1) Solubility was tested in five media, pH 3.0 citrate buffer, pH 4.5 acetate buffer, pH 6.8 phosphate buffer, water, simulated vaginal fluid (pH 4.2) at 37° C. for 0.5 h and 2 h.
The salt amount used is equivalent to 10 mg anhydrous free base. […] The obtained clear solutions were analyzed by pH meter for pH, and solubility was determined by observation.
as §1

[1] = Hygroscopicity by DVS at 25° C.; assay type: physicochemical; conditions: for Hygroscopicity (in words): DVS 25° C.; for XRPD after DVS test: after 40-0-95-0-40% RH cycle, 25° C.
Method: Hygroscopicity was investigated by DVS at 25° C., using the following method: […]

[2] = Polymorph screening by equilibration in solvents at 25° C. (crystal modification, XRPD); assay type: physicochemical
[3] = Bulk stability (accelerated stability, one week; HPLC and XRPD); conditions: for physical and chemical stability (in words): 25° C./92% RH open, 40° C./75% RH open, 60° C. tight container, one week; for Bulk (XRPD) / Color / Purity, Bulk (HPLC): Solid state, 1 week; for Initial HPLC purity: before storage
[4] = Ex vivo permeation and penetration across porcine vaginal tissue (Franz diffusion cells, IVPT); assay type: in vitro ADME; conditions: FIG. 116
Excerpt: (§2) FIG. 116 is an in vitro tissue permeation test in vaginal tissue comparing Compound II to ABI-1968. […] Bars B and C show the tissue penetration of a 0.1% Compound II gel in human cervical tissue. […] This may be a contributing factor to the performance of ABI-1968 in clinical studies. […] This is described in Example 41.
Freshly harvested porcine vaginal tissue was procured from local slaughterhouse in an ice box. The vaginal tissue was cut open to expose the mucosal surface and tissue was cleaned by gentle flow of PBS pH 7.4. The porcine vaginal tissue was cut into circular portions (approximately 2 cm^2) with help of a […] punch.
The circular portion of tissue was sandwiched between two chambers of a Franz diffusion cell with an active diffusion area of 1 cm^2, and the mucosal layer was exposed to the donor chambers. The resistance across porcine vaginal tissue was measured using a wave form generator to ensure the integrity of the tissue segment used for the permeation study. Porcine vaginal tissue with resistance of ≥3 KΩ·cm^2 was used for study. The receiver chamber was filled with 8 ml of 5% solutol PBS 7.4 pH, which was stirred at 600 rpm with a 3 mm magnetic stir bar and the temperature was maintained at 37° C. with a circulating water bath.
The ˜200 mg of gel was filled into tared 1 mL syringe and gel was dispensed to donor chamber. […]

[5] = In vitro tissue permeation test in human cervical tissue; assay type: in vitro ADME; conditions: 0.1% gel, FIG. 116
Excerpt: as §2

[6] = pH 4.2, fassgf or other biorelevant
[7] = Simulated vaginal fluid (pH adjusted by 0.1N NaOH)
[8] = cycle of 40-0-95-0-45% relative humidity
[9] = PS7, solvent IPA/heptanes (3/10, v/v)
[10] = PS8, solvent water/ACN (2.9/97.1, v/v)
[11] = PS9, solvent IPA/MTBE (1/3, v/v)
[12] = PS10, solvent EA/toluene (1/3, v/v)

Q: Which solubility (physchem; aqueous buffer) does the source give for `CCOC(=O)[C@H](C)N[P@](=O)(COCCn1cnc2c(OC)nc(N)nc21)OCc1ccccc1` (single isomer, unassigned) [Compound III, monofumarate] here?
A: Its solubility is over 2000 µg/mL.

Q: What about the solubility (physchem; pH 3, aqueous buffer) of the same compound?
A: Its solubility is over 2000 µg/mL.

Q: And the solubility (physchem; [6])?
A: Its solubility is over 2000 µg/mL.

Q: What about the solubility (physchem; pH 4.5, aqueous buffer) of the same compound?
A: The solubility was over 2000 µg/mL.

Q: What about the solubility (physchem; pH 6.8, aqueous buffer) of the same compound?
A: Its solubility is over 2000 µg/mL.

Q: And the solubility (physchem; water)?
A: Its solubility is over 2000 µg/mL.

Q: And the “pH of solution, 2 hours” value (physchem; [7])?
A: Its value is 5.37.

Q: What about the “Solubility 2 hours” value (physchem; [7]) of the same compound?
A: Its value is over 2000 µg/mL.

Q: And the “pH of solution, 2 hours” value (physchem; Water)?
A: Its value is 2.78.

Q: And the “Solubility 2 hours” value (physchem; Water)?
A: Its value is over 2000 µg/mL.

Q: What about the “pH of solution, 2 hours” value (physchem; pH 3.0, 100 mM citrate buffer) of the same compound?
A: Its value is 2.83.

Q: What about the “Solubility 2 hours” value (physchem; pH 3.0, 100 mM citrate buffer) of the same compound?
A: Its value is over 2000 µg/mL.

Q: And the “pH of solution, 2 hours” value (physchem; pH 4.5, 50 mM acetate buffer)?
A: Its value is 4.12.

Q: What about the “Solubility 2 hours” value (physchem; pH 4.5, 50 mM acetate buffer) of the same compound?
A: The value was over 2000 µg/mL.

Q: What about the “pH of solution, 2 hours” value (physchem; pH 6.8, 50 mM phosphate buffer) of the same compound?
A: Its value is 6.44.

Q: What about the “Solubility 2 hours” value (physchem; pH 6.8, 50 mM phosphate buffer) of the same compound?
A: The value was over 2000 µg/mL.

Q: And the “Hygroscopicity (in words)” value [1]?
A: The value was “slightly hygroscopic”.

Q: And the “XRPD after DVS test” value [1]?
A: Its value is “No form change”.

Q: And the “XRPD pattern after humidity cycle” value [1, 8]?
A: The value was “lose one of the peaks”.

Q: And the “increase in retained water content versus Compound II” value [1, 8]?
A: The value was 40 fold.

Q: What about the “Crystal modification after 1 week equilibration at 25° C.” value (“Crystal modification” below) ([2]; PS1, solvent IPA) of the same compound?
A: Its value is “Compound V Pattern 2”.

Q: What about the “Crystal modification” value ([2]; PS2, solvent Heptanes) of the same compound?
A: The value was “Compound III Pattern 2”.

Q: And the “Crystal modification” value ([2]; PS3, solvent Water)?
A: The value was “Compound III Pattern 3”.

Q: And the “Crystal modification” value ([2]; PS4, solvent ACN)?
A: The value was “Compound III Pattern 4”.

Q: And the “Crystal modification” value ([2]; PS5, solvent MEK)?
A: The value was “Compound III Pattern 5”.

Q: And the “Crystal modification” value [2, 9]?
A: Its value is “Compound III Pattern 2”.

Q: And the “Crystal modification” value [2, 10]?
A: The value was “Compound III Pattern 4”.

Q: And the “Crystal modification” value [2, 11]?
A: The value was “Compound III Pattern 6”.

Q: And the “Crystal modification” value [2, 12]?
A: Its value is “Compound III Pattern 2”.

Q: What about the “physical and chemical stability (in words)” value [3] of the same compound?
A: Its value is “good physical stability”.

Q: What about the “Bulk (XRPD)” value ([3]; 25° C./92% RH, open container) of the same compound?
A: The value was “No form change”.

Q: What about the Color ([3]; 25° C./92% RH, open container) of the same compound?
A: Its Color is “No change”.

Q: And the “Purity, Bulk (HPLC)” value ([3]; 25° C./92% RH, open container)?
A: Its value is 98.7%.

Q: And the “Bulk (XRPD)” value ([3]; 40° C./75% RH, open container)?
A: The value was “No form change (One”.

Q: What about the Color ([3]; 40° C./75% RH, open container) of the same compound?
A: The Color was “No change”.

Q: What about the “Purity, Bulk (HPLC)” value ([3]; 40° C./75% RH, open container) of the same compound?
A: The value was 97.2%.

Q: What about the “Bulk (XRPD)” value ([3]; 60° C., tight container) of the same compound?
A: Its value is “No form change (One”.

Q: What about the Color ([3]; 60° C., tight container) of the same compound?
A: Its Color is “No change”.

Q: And the “Purity, Bulk (HPLC)” value ([3]; 60° C., tight container)?
A: Its value is 97.3%.

Q: And the “Initial HPLC purity” value [3]?
A: The value was 98.8%.

Q: For `CCCCCCCCCCCCCCCCCCOCCOP(=O)(O)COCCn1cnc2c(=O)[nH]c(N)nc21` [ABI-1968, reference compound], which “tissue penetration (in words)” value [4] is on record?
A: Its value is “substantially smaller degree”.

Q: Which solubility (physchem; aqueous buffer) does the source give for `CCOC(=O)[C@H](C)N[P@@](=O)(COCCn1cnc2c(OC)nc(N)nc21)OCc1ccccc1.O=C(O)/C=C/C(=O)O` [Compound II] here?
A: Its solubility is over 2000 µg/mL.

Q: What about the solubility at 0.5 h (physchem; pH 3, aqueous buffer) of the same compound?
A: Its solubility at 0.5 h is over 2000 µg/mL.

Q: And the solubility at 2 h (physchem; pH 3, aqueous buffer)?
A: Its solubility at 2 h is over 2000 µg/mL.

Q: What about the solubility at 0.5 h (physchem; [6]) of the same compound?
A: Its solubility at 0.5 h is over 2000 µg/mL.

Q: What about the solubility at 2 h (physchem; [6]) of the same compound?
A: Its solubility at 2 h is over 2000 µg/mL.

Q: What about the solubility at 0.5 h (physchem; pH 4.5, aqueous buffer) of the same compound?
A: Its solubility at 0.5 h is over 2000 µg/mL.

Q: What about the solubility at 2 h (physchem; pH 4.5, aqueous buffer) of the same compound?
A: The solubility at 2 h was over 2000 µg/mL.

Q: What about the solubility at 0.5 h (physchem; pH 6.8, aqueous buffer) of the same compound?
A: The solubility at 0.5 h was over 2000 µg/mL.

Q: And the solubility at 2 h (physchem; pH 6.8, aqueous buffer)?
A: Its solubility at 2 h is over 2000 µg/mL.

Q: What about the solubility at 0.5 h (physchem; water) of the same compound?
A: The solubility at 0.5 h was over 2000 µg/mL.

Q: And the solubility at 2 h (physchem; water)?
A: The solubility at 2 h was over 2000 µg/mL.

Q: And the “pH of solution, 2 hours” value (physchem; [7])?
A: The value was “(5.79)”.

Q: And the “pH of solution, 2 hours” value (physchem; Water)?
A: The value was “(2.87)”.

Q: What about the “pH of solution, 2 hours” value (physchem; pH 3.0, 100 mM citrate buffer) of the same compound?
A: The value was “(2.85)”.

Q: What about the “pH of solution, 2 hours” value (physchem; pH 4.5, 50 mM acetate buffer) of the same compound?
A: The value was “(4.2)”.

Q: What about the “pH of solution, 2 hours” value (physchem; pH 6.8, 50 mM phosphate buffer) of the same compound?
A: The value was “(6.47)”.

Q: What about the “Hygroscopicity (in words)” value [1] of the same compound?
A: Its value is “slightly hygroscopic”.

Q: And the “XRPD after DVS test” value [1]?
A: The value was “No form change”.

Q: What about the “XRPD pattern after humidity cycle” value [1, 8] of the same compound?
A: Its value is “does not change”.

Q: And the “tissue penetration (in words)” value [4]?
A: The value was “high tissue penetration”.

Q: And the “tissue penetration (in words)” value [5]?
A: The value was “high tissue penetration”.

Q: And the “Crystal modification” value ([2]; PS1, solvent IPA)?
A: The value was “Compound II Pattern 1”.

Q: What about the “Crystal modification” value ([2]; PS2, solvent Heptanes) of the same compound?
A: Its value is “Compound II Pattern 1”.

Q: And the “Crystal modification” value ([2]; PS3, solvent Water)?
A: Its value is “Compound II Pattern 1”.

Q: What about the “Crystal modification” value ([2]; PS4, solvent ACN) of the same compound?
A: Its value is “Compound II Pattern 2”.

Q: And the “Crystal modification” value ([2]; PS5, solvent MEK)?
A: The value was “Compound II Pattern 3”.

Q: What about the “Crystal modification” value ([2]; PS6, solvent Acetone) of the same compound?
A: Its value is “Compound II Pattern 1”.

Q: What about the “Crystal modification” value [2, 9] of the same compound?
A: Its value is “Compound II Pattern 1”.

Q: What about the “Crystal modification” value [2, 10] of the same compound?
A: Its value is “Compound II Pattern 2”.

Q: What about the “Crystal modification” value [2, 11] of the same compound?
A: Its value is “Compound II Pattern 1”.

Q: And the “Crystal modification” value [2, 12]?
A: Its value is “Compound II Pattern 1”.

Q: And the “physical and chemical stability (in words)” value [3]?
A: Its value is “good physical and chemical stability”.

Q: And the “Bulk (XRPD)” value ([3]; 25° C./92% RH, open container)?
A: Its value is “No form change”.

Q: And the Color ([3]; 25° C./92% RH, open container)?
A: Its Color is “No change”.

Q: And the “Purity, Bulk (HPLC)” value ([3]; 25° C./92% RH, open container)?
A: Its value is 99.5%.

Q: And the “Bulk (XRPD)” value ([3]; 40° C./75% RH, open container)?
A: The value was “No form change”.

Q: What about the Color ([3]; 40° C./75% RH, open container) of the same compound?
A: Its Color is “No change”.

Q: What about the “Purity, Bulk (HPLC)” value ([3]; 40° C./75% RH, open container) of the same compound?
A: The value was 99.4%.

Q: And the “Bulk (XRPD)” value ([3]; 60° C., tight container)?
A: Its value is “No form change”.

Q: And the Color ([3]; 60° C., tight container)?
A: The Color was “No change”.

Q: What about the “Purity, Bulk (HPLC)” value ([3]; 60° C., tight container) of the same compound?
A: Its value is 99.7%.

Q: And the “Initial HPLC purity” value [3]?
A: The value was 99.7%.
